Experimental findings from patent publication US20040009507A1, “Concatenated nucleic acid sequence” (Domantis, Ltd., priority 2000, published 2004) are described below.

One assay addresses T1, EC-EpoR-Fc (Homo sapiens, UniProt P19235).
T1 construct: (EC-EpoR, amino acids 1 to 225); made in house; host or cells: Pichia pastoris X-33 (pPICZαA, secreted)
T1 sequence (P19235 25-249): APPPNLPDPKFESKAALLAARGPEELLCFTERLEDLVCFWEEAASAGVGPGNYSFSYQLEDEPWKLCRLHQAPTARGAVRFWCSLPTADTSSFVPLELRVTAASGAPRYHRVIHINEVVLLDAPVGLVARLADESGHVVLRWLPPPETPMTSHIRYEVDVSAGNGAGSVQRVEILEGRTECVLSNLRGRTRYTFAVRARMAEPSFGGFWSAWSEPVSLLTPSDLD
Put plainly: Competition ELISA with synthetic trMP peptide, phage binding to immobilised EC-EpoR-Fc. The protocol:
Without a crystal structure of the MP/Ec-EpoR-Fc complex, it is however unclear whether the contribution of an MP residue in these parts to EC-EpoR-Fc binding is related to direct peptide-receptor interaction or to intra-molecular interactions. In an attempt to delineate the MP peptide binding site on EC-EpoR-Fe, a competition ELISA using a synthetic truncated version of the MP peptide (trMP, from A3 to Y28) was performed. […] A similar result (i.e. binding outside the biological ligand-binding site) has been reported for the symmetrical molecule SB-247464 which recognises the homodimeric G-CSF receptor (Tian et al., 1998). Large and complex proteins with modular architecture indeed appear to have multiple ligand-binding sites located at the slits between symmetrical modules.
For competition ELISA with synthetic trMP peptide (see below), serial dilutions of MP peptide (starting from 1 mM) were mixed with 2.5×10^8 phage in 2% MPBS, then added to pre-blocked EC-EpoR-Fc-coated wells for 2 hours. Bound phage were detected as described above. […] Bound EC-EpoR-Fc was detected with protein A-horseradish peroxidase conjugate ( 1/4000 dilution, Sigma), and o-phenylene diamine dihydrochloride (OPD) as substrate. After 10-15 minutes, the reactions were stopped with 50 μl of 4 N H2SO4 and absorbances were measured at 492 nm.
Background: An ELISA detects its analyte on a solid surface through an enzyme-linked reagent.

In the next assay the target is T2, ferritin (Equus caballus, UniProt P02791+Q8MIP0).
T2 construct: ferritin (from horse spleen, Sigma cat. F-4503); purchased Sigma F-4503; host or cells: horse spleen
Put plainly: Apparent dissociation constant of n-unit HKPRKE MBP fusions for ferritin. On the set-up: species or system horse. To be noted: n-unit of HKPRKE motif fused to maltose-binding protein. An excerpt: In contrast, the results from the Fd-1×6-mer, Fd-2×6-mer, and Fd-4×6-mer peptide libraries indicate that concatenation is crucial to reach the selection threshold for binding to ferritin. […] By competition ELISA, we observed that these peptide constructs had affinities to ferritin very similar to that of peptide F6. […] In a randomised polypeptide, the likelihood that down-mutations will offset up-mutations increases with its length, so that ultimately most longer polypeptides will have average sequence profiles. […]
For competition ELISA with ferritin-binding peptide, serial dilutions of MBP-fusions (see below) were incubated with 10 nM biotinylated ferritin in 2% MPBS overnight at 4° C., then added to pre-blocked MBP-(HKPRKE)8-coated wells for 30 min. Bound biotinylated ferritin was detected by incubation with streptavidin horseradish peroxidase conjugate (Sigma) and OPD.
Apparent dissociation constants were calculated using the BIAevaluation program and the 1:1 Langmuir dissociation model from sensorgrams (BIAcore) collected upon immobilisation of 200-400 resonance units (RU) of biotinylated ligands (sEPOR-Fc or MBP-fusion) on SA-sensor chips followed by injection of various analytes (sEPOR-Fc, MBP-fusion, 0.1 to 2 μM concentration range) diluted in HBS-EP buffer (BIAcore), at a flow rate of 80 μl/min at 25° C.

Positions of bridges follow the written chain, without caps; N, C: chain ends. Residues, ends and D or L forms follow the SMILES beside them.

T2 sequence (P02791 2-175 limits assumed): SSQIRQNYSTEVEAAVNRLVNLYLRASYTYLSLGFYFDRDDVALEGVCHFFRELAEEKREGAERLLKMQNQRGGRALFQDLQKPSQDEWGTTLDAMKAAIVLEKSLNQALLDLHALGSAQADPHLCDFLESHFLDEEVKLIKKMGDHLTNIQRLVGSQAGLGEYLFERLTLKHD
T2 sequence (Q8MIP0 whole entry): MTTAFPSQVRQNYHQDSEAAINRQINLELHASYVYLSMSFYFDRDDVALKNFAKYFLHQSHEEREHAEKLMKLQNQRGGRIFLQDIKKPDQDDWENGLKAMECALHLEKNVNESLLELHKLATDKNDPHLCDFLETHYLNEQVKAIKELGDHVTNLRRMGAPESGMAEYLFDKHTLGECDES

For `CC(C)C[C@H](NC(=O)[C@@H](NC(=O)[C@H](C)NC(=O)CNC(=O)[C@H](Cc1c[nH]cn1)NC(=O)[C@@H]1CSSC[C@H](NC(=O)[C@H](C)N)C(=O)N[C@@H](Cc2c[nH]cn2)C(=O)NCC(=O)N[C@@H](C)C(=O)N[C@@H]([C@@H](C)O)C(=O)N[C@@H](CC(C)C)C(=O)N[C@@H](CCC(=O)O)C(=O)N[C@@H](CCC(N)=O)C(=O)N[C@@H]([C@@H](C)O)C(=O)N[C@@H](Cc2ccc(O)cc2)C(=O)N[C@@H](C)C(=O)N[C@@H](CC(C)C)C(=O)N2CCC[C@H]2C(=O)N[C@@H](CC(C)C)C(=O)N[C@@H](C)C(=O)N1)[C@@H](C)O)C(=O)N[C@@H](CCC(=O)O)C(=O)N[C@@H](CCC(N)=O)C(=O)N[C@H](C(=O)N[C@@H](Cc1ccc(O)cc1)C(=O)O)[C@@H](C)O` [trMP, NH2-ACHGATLEQTYALPL ACHGATLEQTY-CO2H] (H-ACHGATLEQTYALPLACHGATLEQTY-OH; disulfide 2-17 (inferred)), the IC50 (usually the midpoint of a concentration-inhibition curve) on EC-EpoR-Fc (read-out: IC50 for blocking MP phage-peptide binding to immobilised EC-EpoR-Fc) is 10 µM. Besides, the “effect on signal of phage displaying the EMP1 peptide” value at EC-EpoR-Fc (trMP concentration up to 1 mM) is listed as “no reduction in signal”.
On to (HKPRKE)4 [F6 peptide], for which the Kd at ferritin is about 0.5 µM.
